Where two headings read alike, the source gives them in different places.
Assays:
EZH2 (rPRC2) = EZH2 (rPRC2) (Homo sapiens, UniProt Q15910); assay: EZH2 assay: rPRC2, biotinylated oligonucleosomes, 3H SAM methyl transfer (FlashPlate scintillation); type: biochemical; details: biotinylated oligonucleosome substrate
[1] = test system: H3K27me3 mark in HeLa cells; assay: H3K27me3 Alpha Hela Assay (AlphaLISA); type: cell-based; details: 72 hrs; for EC50: Homo sapiens, read-out: H3K27me3_Alpha_HeLa_ (EC50)
Protocol: H3K27me3 Alpha Hela Assay (AlphaLISA).
Ten different doses of each test compound (in a series of 3-fold dilutions) were plated in duplicate 384-well tissue culture treated plates (Catalog #781080; Greiner Bio One; Monroe, N.C.). Hela cells grown in culture were trypsinized and counted using a Countess® cell counter (Catalog #C10281; Life Technologies, Grand Island, N.Y.). Cell were diluted to 67,000 cells per mL in 10% DMEM (Catalog #10569-010 Life Technologies. Grand Island, N.Y.) and 15 μL (1,000 cells) were plated into each well using the Biotek MicroFlo™ Select Dispenser (BioTek Instruments. Inc. Vermont, USA),) of the 384-well plate. Plates were incubated at 37° C./5% CO2 for 72 hrs. One of the duplicate plates was processed for HeLa assay and the other for viability.
To the plate processed for AlphaLISA was added 5 μL per well Cell-Histone Lysis buffer (1×) (Catalog #AL009F1 Perkin Elmer; Waltham, Mass.) and the plate was incubated at RT for 30 minutes on a plate shaker with low speed (Model#4625-Q Thermo Scientific; Waltham, Mass.). Then, 10 µL per well Histone Extraction buffer (catalog #AL009F2: Perkin Elmer; Waltham, Mass.) was added and the plate further incubated at RT for 20 min on plate shaker with low speed. To each well was then added 10 μL per well of a 5× mix of anti-K27me3 acceptor beads plus Biotinylated anti-Histone H3 (C-ter) Antibody (diluted to 3 nM final) (Catalog #AL118 Perkin Elmer; Waltham, Mass.). Dilution of the acceptor beads and then anti-Histone H3 was with 1× Histone Detection buffer (Catalog #AL009F3 Perkin Elmer; Waltham, Mass.) which was produced diluted from the 10× stock provided. The plate was sealed with an aluminum plate sealer and incubated at 23° C. for 60 min. We then added 10 μL 5× solution of Streptavidin Donor beads (Catalog #6760002 Perkin Elmer; Waltham, Mass.) (20 μg/mL final in 1× Histone Detection Buffer), sealed the plate with Aluminum plate sealer and incubated at 23° C. for 30 min. The plates were then read using an EnVision-Alpha Reader (model #2104 Perkin Elmer: Waltham, Mass.).
Data from both assays was analyzed using Assay Assistant (Constellation Pharmaceuticals In-house product) and Activity Base (IDBS Ltd. Surrey, UK) template. Data files were imported to Assay Assistant and assay conditions were specified. A unique Analysis ID was created and the data files exported to Activity Base. An analysis template was created on Activity Base to measure dose-dependent inhibition of H3K27me3 mark and cell viability respectively. Readout of DMSO wells were used to normalize the data. Resulting curves were fitted using Activity base software Model 205 (IDBS Ltd, Surrey, UK). The data was checked for quality, validated and integrated in excel format using SARview (IDBS Ltd, Surrey, UK).

[2] = test system: H3K27me3 mark in HeLa cells; assay: H3K27me3 MSD Hela Assay; type: cell-based; details: Homo sapiens, HeLa, 96 h, read-out: H3K27me3_MSD_HeLa_ (EC50)
In short: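 HeLa cells treated with compound at various concentrations for 96 h at 37 °C, then lysed with high-salt extraction. H3K27me3 measured by MSD electrochemiluminescence immunoassay on total-H3 capture plates. Dose-dependent inhibition normalised to DMSO wells and fitted to curves.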

Y641N EZH2 = Y641N EZH2 (Homo sapiens, UniProt Q15910, Y641N); assay: Y641N EZH2 assay: as EZH2 assay, with reconstituted H3K27Me2 oligonucleosomes as substrate; type: biochemical
Chain of Y641N EZH2 (Q15910 whole entry Y641N): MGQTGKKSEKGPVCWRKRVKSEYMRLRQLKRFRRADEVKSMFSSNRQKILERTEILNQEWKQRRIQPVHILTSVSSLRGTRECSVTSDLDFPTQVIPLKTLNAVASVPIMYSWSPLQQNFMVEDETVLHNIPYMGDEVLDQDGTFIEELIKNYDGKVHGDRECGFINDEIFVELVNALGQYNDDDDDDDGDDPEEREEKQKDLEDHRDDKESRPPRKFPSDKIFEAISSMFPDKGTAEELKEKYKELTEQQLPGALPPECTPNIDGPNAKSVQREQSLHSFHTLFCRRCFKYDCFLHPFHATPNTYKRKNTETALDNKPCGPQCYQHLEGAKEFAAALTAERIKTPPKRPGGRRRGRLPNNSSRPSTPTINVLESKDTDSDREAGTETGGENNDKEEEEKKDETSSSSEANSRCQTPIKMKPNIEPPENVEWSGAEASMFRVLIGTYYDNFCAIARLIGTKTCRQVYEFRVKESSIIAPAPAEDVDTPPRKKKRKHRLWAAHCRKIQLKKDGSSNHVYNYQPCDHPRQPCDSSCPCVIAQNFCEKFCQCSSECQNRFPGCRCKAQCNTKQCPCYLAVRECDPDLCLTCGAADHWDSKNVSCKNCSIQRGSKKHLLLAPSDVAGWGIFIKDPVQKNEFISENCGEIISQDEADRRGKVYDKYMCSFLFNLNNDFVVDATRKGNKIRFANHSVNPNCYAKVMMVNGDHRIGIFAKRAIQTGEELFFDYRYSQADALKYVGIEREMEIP
Chain of Y641N EZH2 (O75530 whole entry partner): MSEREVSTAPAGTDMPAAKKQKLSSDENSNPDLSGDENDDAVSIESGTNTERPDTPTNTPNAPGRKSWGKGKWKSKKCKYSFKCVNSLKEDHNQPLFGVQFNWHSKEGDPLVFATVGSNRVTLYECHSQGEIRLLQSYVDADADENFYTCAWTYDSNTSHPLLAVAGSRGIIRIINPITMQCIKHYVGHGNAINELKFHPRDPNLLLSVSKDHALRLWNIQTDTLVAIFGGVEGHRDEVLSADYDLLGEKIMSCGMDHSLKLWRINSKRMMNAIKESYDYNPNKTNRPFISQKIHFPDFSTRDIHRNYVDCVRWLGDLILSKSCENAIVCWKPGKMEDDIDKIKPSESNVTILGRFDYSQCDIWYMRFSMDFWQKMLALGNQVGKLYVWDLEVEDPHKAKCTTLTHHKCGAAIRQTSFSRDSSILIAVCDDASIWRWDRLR
Chain of Y641N EZH2 (Q15022 whole entry partner): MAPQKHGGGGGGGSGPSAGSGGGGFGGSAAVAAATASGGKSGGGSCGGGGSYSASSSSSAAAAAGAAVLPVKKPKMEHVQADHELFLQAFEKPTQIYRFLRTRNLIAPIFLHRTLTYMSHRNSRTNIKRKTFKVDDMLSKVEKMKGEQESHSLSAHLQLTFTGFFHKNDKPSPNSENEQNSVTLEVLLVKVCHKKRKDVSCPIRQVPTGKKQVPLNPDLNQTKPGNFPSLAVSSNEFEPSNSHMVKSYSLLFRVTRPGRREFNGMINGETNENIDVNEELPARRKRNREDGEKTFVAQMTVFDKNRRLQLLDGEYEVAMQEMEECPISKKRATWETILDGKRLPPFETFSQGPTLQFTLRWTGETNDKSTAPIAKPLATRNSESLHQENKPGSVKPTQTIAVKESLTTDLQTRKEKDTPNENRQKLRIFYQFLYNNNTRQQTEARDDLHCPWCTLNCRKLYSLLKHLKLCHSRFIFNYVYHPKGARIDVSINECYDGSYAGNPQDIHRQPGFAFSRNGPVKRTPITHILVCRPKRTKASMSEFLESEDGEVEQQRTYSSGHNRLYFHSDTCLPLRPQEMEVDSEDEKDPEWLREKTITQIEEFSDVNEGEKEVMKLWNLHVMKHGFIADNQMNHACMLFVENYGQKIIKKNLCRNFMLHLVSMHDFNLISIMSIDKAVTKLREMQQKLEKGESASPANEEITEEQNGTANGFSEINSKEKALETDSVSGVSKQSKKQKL

[3] = EZH2 IC50, wild-type EZH2 (rPRC2)
[4] = Y641N EZH2 IC50, Y641N mutant EZH2, H3K27Me2 oligonucleosome substrate
[5] = wild-type EZH2 (rPRC2), read-out: EZH2 IC50
[6] = Y641N mutant EZH2, H3K27Me2 oligonucleosome substrate, read-out: Y641N EZH2 IC50

Chain of EZH2 (rPRC2) (Q15910 whole entry): as the sequence (Q15910 whole entry Y641N) above, with N641Y counted along it
Chain of EZH2 (rPRC2) (O75530 whole entry partner): as the sequence (O75530 whole entry partner) above
Chain of EZH2 (rPRC2) (Q15022 whole entry partner): as the sequence (Q15022 whole entry partner) above

COc1cc(C)[nH]c(=O)c1CNC(=O)c1c(C)n(C(C)C(C)OC)c2ncccc12 (single isomer, unassigned) [Compound 261, N-((4-methoxy-6-methyl-2-oxo-1,2-dihydropyridin-3-yl)methyl)-1-((2R or 2S, 3R or 3S)-3-methoxybutan-2-yl)-2-methyl-1H-pyrrolo[2,3-b]pyridine-3-carboxamide]
IC50 (EZH2 (rPRC2); [3]): < 0.1 µM
EC50 [1]: < 0.4 µM
EC50 [2]: < 0.4 µM
IC50 (Y641N EZH2; [4]): < 0.1 µM

Cc1cc(C)c(CNC(=O)c2c(C)n(C(C)c3cccc(C#N)c3)c3ccccc23)c(=O)[nH]1 (stereo not shown) [Compound 187, 1-(1-(3-cyanophenyl)ethyl)-N-((4,6-dimethyl-2-oxo-1,2-dihydropyridin-3-yl)methyl)-2-methyl-1H-indole-3-carboxamide]
IC50 (EZH2 (rPRC2); [3]): < 0.1 µM
EC50 [1]: 0.4 to 2 µM
EC50 [2]: 0.4 to 2 µM
IC50 (Y641N EZH2; [4]): 0.1 to 1 µM

COc1cc(C)[nH]c(=O)c1CNC(=O)c1c(C)n(C(C)C2CCOCC2)c2ccccc12 (single isomer, unassigned) [Compound 298, (R or S)-N-((4-methoxy-6-methyl-2-oxo-1,2-dihydropyridin-3-yl)methyl)-2-methy1-1-(1-(tetrahydro-2H-pyran-4-yl)ethyl)-1H-indole-3-carboxamide]
EC50 [1]: < 0.4 µM
EC50 [2]: < 0.4 µM

COc1cc(C)[nH]c(=O)c1CNC(=O)c1c(C)n(C(C)C2CCN(C(=O)OC(C)C)CC2)c2ccccc12 (single isomer, unassigned) [Compound 346, (R or S)-isopropyl 4-(1-(3-((4-methoxy-6-methyl-2-oxo-1,2-dihydropyridin-3-yl)methylcarbamoyl)-2-methyl-1H-indol-1-yl)ethyl)piperidine-1-carboxylate]
IC50 (EZH2 (rPRC2); [3]): < 0.1 µM
EC50 [1]: < 0.4 µM
IC50 (Y641N EZH2; [4]): < 0.1 µM

COc1cc(C)[nH]c(=O)c1CNC(=O)c1c(C)n(C(C)C2CCN(c3ccccn3)CC2)c2ccccc12 (single isomer, unassigned) [Compound 373]
IC50 (EZH2 (rPRC2); [3]): < 0.1 µM
EC50 [1]: < 0.4 µM
IC50 (Y641N EZH2; [4]): < 0.1 µM

CCS(=O)(=O)C1(C(C)n2c(C)c(C(=O)NCc3c(OC)cc(C)[nH]c3=O)c3ccccc32)CCNCC1 (single isomer, unassigned) [Compound 345, (R or S)-1-(1-(4-(ethylsulfonyl)piperidin-4-yl)ethyl)-N-((4-methoxy-6-methyl-2-oxo-1,2-dihydropyridin-3-yl)methyl)-2-methyl-1 H-indole-3-carboxamide]
IC50 (EZH2 (rPRC2); [3]): < 0.1 µM
EC50 [1]: < 0.4 µM
IC50 (Y641N EZH2; [4]): < 0.1 µM

COc1cc(C)[nH]c(=O)c1CNC(=O)c1c(C)n(C(C)C2CN(S(C)(=O)=O)C2)c2ccccc12 (racemic) [Compound 354, (±)-N-((4-methoxy-6-methyl-2-oxo-1,2-dihydropyridin-3-yl)methyl)-2-methyl-1-(1-(1-(methylsulfonyl)azetidin-3-yl)ethyl)-1H-indole-3-carboxamide]
IC50 (EZH2 (rPRC2); [3]): < 0.1 µM
EC50 [1]: 0.4 to 2 µM
IC50 (Y641N EZH2; [4]): < 0.1 µM

COc1cc(C)[nH]c(=O)c1CNC(=O)c1c(C)n(C(C)C2CCN(CC(C)(C)O)CC2)c2ccccc12 (single isomer, unassigned) [Compound 352, (R or S)-1-(1-(1-(2-hydroxy-2-methylpropyl)piperidin-4-yl)ethyl)-N-((4-methoxy-6-methyl-2-oxo-1,2-dihydropyridin-3-yl)methyl)-2-methyl-1H-indole-3-carboxamide]
IC50 (EZH2 (rPRC2); [3]): < 0.1 µM
EC50 [1]: 0.4 to 2 µM
IC50 (Y641N EZH2; [4]): < 0.1 µM

CCC(C)n1c(C)c(C(=O)NCc2c(OC)cc(C)[nH]c2=O)c2ccc(-c3ccc(N4CCNCC4)nc3)cc21 (racemic) [Compound 349, (±)-1-(sec-butyl)-N-((4-methoxy-6-methyl-2-oxo-1,2-dihydropyridin-3-yl)methyl)-2-methyl-6-(6-(piperazin-1-yl)pyridine-3-yl)-1H-indole-3-carboxamide]
IC50 (EZH2 (rPRC2); [3]): < 0.1 µM
EC50 [1]: 2 to 10 µM
IC50 (Y641N EZH2; [4]): < 0.1 µM

COc1cc(C)[nH]c(=O)c1CNC(=O)c1c(C)n(-c2cccc3ncccc23)c2ccccc12 [Compound 330, N-((4-methoxy-6-methyl-2-oxo-1,2-dihydropyridin-3-yl)methyl)-2-methyl-1-(quinolin-5-yl)-1H-indole-3-carboxamide]
IC50 (EZH2 (rPRC2); [5]): < 0.1 µM
EC50 [1]: 0.4 to 2 µM
IC50 (Y641N EZH2; [6]): < 0.1 µM

CCN1CCC(C(C)n2c(C)c(C(=O)NCc3c(OC)cc(C)[nH]c3=O)c3ccccc32)CC1 (single isomer, unassigned) [Compound 360, (R or S)-1-(1-(1-ethylpiperidin-4-yl)ethyl)-N-((4-methoxy-6-methyl-2-oxo-1,2-dihydropyridin-3-yl)methyl)-2-methyl-1 H-indole-3carboxamide]
IC50 (EZH2 (rPRC2); [3]): < 0.1 µM
EC50 [1]: 2 to 10 µM
IC50 (Y641N EZH2; [4]): < 0.1 µM

COc1cc(C)[nH]c(=O)c1CNC(=O)c1c(C)n(C(C)C2CCN(CC(F)F)CC2)c2ccccc12 (single isomer, unassigned) [Compound 362, (R or S)-1-(1-(1-(2,2-difluoroethyl)piperidin-4-yl)ethyl)-N-((4-methoxy-6-methyl-2-oxo-1,2-dihydropyridin-3-yl)methyl)-2-methyl-1H-indole-3-carboxamide]
IC50 (EZH2 (rPRC2); [3]): < 0.1 µM
EC50 [1]: < 0.4 µM
IC50 (Y641N EZH2; [4]): < 0.1 µM

Cc1cc(C)c(CNC(=O)c2c(C)n(C(C)C3CC3)c3ncccc23)c(=O)[nH]1 (single isomer, unassigned) [Compound 253, (R or S)-(±)-1-(1-cyclopropylethyl)-N-((4,6-dimethyl-2-oxo-1,2-dihydropyridin-3-yl)methyl)-2-methyl-1H-pyrrolo[2,3-b]pyridine-3-carboxamide]
IC50 (EZH2 (rPRC2); read-out: EZH2 IC50, wild-type EZH2 (rPRC2)): < 0.1 µM
EC50 [1]: < 0.4 µM
IC50 (Y641N EZH2; read-out: Y641N EZH2 IC50, Y641N mutant EZH2, H3K27Me2 oligonucleosome substrate): 0.1 to 1 µM

COc1cc(C)[nH]c(=O)c1CNC(=O)c1c(C)n(-c2cccc3c2CCCN3)c2ccccc12 [Compound 339, N-((4-methoxy-6-methyl-2-oxo-1,2-dihydropyridin-3-yl)methyl)-2-methyl-1-(1,2,3,4-tetrahydroquinolin-5-yl)-1H-indole-3-carboxamide]
IC50 (EZH2 (rPRC2); [5]): < 0.1 µM
EC50 [1]: < 0.4 µM
IC50 (Y641N EZH2; [6]): < 0.1 µM

COc1cc(C)[nH]c(=O)c1CNC(=O)c1c(C)n(C(C)C2CCC(S(=O)(=O)C(C)C)CC2)c2ccccc12 (single isomer, unassigned) [Compound 355, (R or S)-1-(1-(4-(isopropylsulfonyl)cyclohexyl)ethyl)-N-((4-methoxy-6-methyl-2-oxo-1,2-dihydropyridin-3-yl)methyl)-2-methyl-1 H-indole-3-carboxamide]
IC50 (EZH2 (rPRC2); [3]): < 0.1 µM
EC50 [1]: < 0.4 µM
IC50 (Y641N EZH2; [4]): < 0.1 µM

COc1cc(C)[nH]c(=O)c1CNC(=O)c1c(C)n(C(C)c2ccnc(N3CCNCC3)c2)c2ccccc12 (racemic) [Compound 353, (±)-N-((4-methoxy-6-methyl-2-oxo-1,2-dihydropyridin-3-yl)methyl)-2-methyl-1-(1-(2-(piperazin-1-yl)pyridine-4-yl)ethyl)-1H-indole-3-carboxamide]
IC50 (EZH2 (rPRC2); [3]): < 0.1 µM
H3K27me3_Alpha_HeLa_ (EC50) [1]: *(3.33 μM)
IC50 (Y641N EZH2; [4]): < 0.1 µM

COc1cc(C)[nH]c(=O)c1CNC(=O)c1c(C)n(C(C)C2CCNCC2)c2ncncc12 (racemic) [Compound 333, (±)-N-((4-methoxy-6-methyl-2-oxo-1,2-dihydropyridin-3-yl)methyl)-6-methyl-7-(1-(piperidin-4-yl)ethyl)-7H-pyrrolo[2,3-d]pyrimidine-5-carboxamide]
IC50 (EZH2 (rPRC2); [3]): < 0.1 µM
EC50 [1]: 0.4 to 2 µM
IC50 (Y641N EZH2; [4]): 0.1 to 1 µM

Source: patent US9371331B2, “Modulators of methyl modifying enzymes, compositions and uses thereof” (Constellation Pharmaceuticals, Inc., priority 2012, dated 2016)
